Source: ChEMBL document CHEMBL1133871, “4-Aminopiperidine ureas as potent selective agonists of the human beta(3)-adrenergic receptor” (Bioorg Med Chem Lett, 2001)
Calls of active or inactive are those of the source. The rule behind the calls is not given here.

How the values were obtained:
[1] = biological target: Beta-1 adrenergic receptor (Homo sapiens, UniProt P08588); assay: In vitro agonistic activity assessed by measurement of cAMP accumulation level in CHO cells expressing human beta1-AR receptor; format: functional, cell-based
Sequence of Beta-1 adrenergic receptor (P08588 whole entry): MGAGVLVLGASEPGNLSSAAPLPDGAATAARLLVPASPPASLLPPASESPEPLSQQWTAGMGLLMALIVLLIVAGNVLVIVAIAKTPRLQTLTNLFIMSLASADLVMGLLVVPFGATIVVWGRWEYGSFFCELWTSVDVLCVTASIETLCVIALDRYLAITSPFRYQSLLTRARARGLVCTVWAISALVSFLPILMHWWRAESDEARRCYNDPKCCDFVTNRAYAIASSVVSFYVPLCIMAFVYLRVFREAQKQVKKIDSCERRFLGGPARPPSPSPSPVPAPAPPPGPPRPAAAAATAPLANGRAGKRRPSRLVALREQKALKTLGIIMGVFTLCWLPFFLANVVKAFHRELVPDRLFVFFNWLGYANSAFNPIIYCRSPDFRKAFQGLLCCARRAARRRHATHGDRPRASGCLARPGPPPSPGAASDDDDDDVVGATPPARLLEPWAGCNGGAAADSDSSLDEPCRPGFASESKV

[2] = biological target: T1, Beta-3 adrenergic receptor (Homo sapiens, UniProt P13945); assay: In vitro agonistic activity assessed by measurement of cAMP accumulation level in CHO cells expressing human beta3-AR receptor; In active; format: functional, cell-based
Target sequence in this assay (P13945 whole entry): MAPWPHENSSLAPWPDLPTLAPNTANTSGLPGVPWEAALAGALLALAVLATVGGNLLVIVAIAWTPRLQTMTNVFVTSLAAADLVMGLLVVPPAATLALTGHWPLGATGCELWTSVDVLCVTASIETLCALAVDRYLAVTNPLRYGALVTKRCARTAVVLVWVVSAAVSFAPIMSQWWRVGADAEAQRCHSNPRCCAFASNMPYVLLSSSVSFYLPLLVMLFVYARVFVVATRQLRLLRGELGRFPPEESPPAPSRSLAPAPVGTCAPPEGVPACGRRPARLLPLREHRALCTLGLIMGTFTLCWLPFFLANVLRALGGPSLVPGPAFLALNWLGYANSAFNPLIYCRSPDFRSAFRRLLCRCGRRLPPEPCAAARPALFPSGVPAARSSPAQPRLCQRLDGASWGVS

[3] = biological target: T1, Beta-3 adrenergic receptor; assay: In vitro intrinsic activity is given as percentage of maximal stimulation relative to isoproterenol; In active; format: functional
Target sequence in this assay (P13945 whole entry): as above

[4] = biological target: T1, Beta-3 adrenergic receptor; assay: […] of cAMP accumulation level in CHO cells expressing human beta3-AR receptor at 10 uM concentration; format: functional, cell-based
Target sequence in this assay (P13945 whole entry, looked up): as the sequence (P13945 whole entry) above

Adrenergic receptor beta [5] = biological target: T2, Adrenergic receptor beta (Homo sapiens, UniProt P08588+P07550+P13945); assay: In vitro intrinsic activity is given as percentage of maximal stimulation relative to isoproterenol; Not active; format: functional
[6] = biological target: T1, Beta-3 adrenergic receptor; assay: In vitro agonistic activity assessed by measurement of cAMP accumulation level in CHO cells expressing human beta3-AR receptor; format: functional, cell-based
Target sequence in this assay (P13945 whole entry): as above

Adrenergic receptor beta [7] = biological target: T2, Adrenergic receptor beta; assay: In vitro agonistic activity against cAMP accumulation level in CHO cells expressing human beta-AR receptor; format: functional, cell-based

| Compound | EC50 [1] [nM] | also measured |
| --- | --- | --- |
| NC(=O)N1CCC(Nc2ccc(CCNC[C@H](O)COc3ccc(O)cc3)cc2)CC1 | 511 | – |
| O=C(NC1CCCCC1)N1CCC(Nc2ccc(CCNC[C@H](O)COc3ccc(O)cc3)cc2)CC1 | 85 | – |
| CCN(CC)C(=O)N1CCC(Nc2ccc(CCNC[C@H](O)COc3ccc(O)cc3)cc2)CC1 | 164 | – |
| CCCCCCCCNC(=O)N1CCC(Nc2ccc(CCNC[C@H](O)COc3cccc4[nH]c(O)nc34)cc2)CC1 | – | EC50 [2]: Not Active; EC50 [3]: Not Active |
| CCCCCCCCNC(=O)N1CCC(Nc2ccc(CCNC[C@H](O)COc3ccc(F)cc3)cc2)CC1 | – | inhibition [4]: 37% |
| CCCCCCCCNC(=O)N1CCC(Nc2ccc(CCNC[C@H](O)c3ccc(O)c(C(N)=O)c3)cc2)CC1 | – | Intrinsic activity [4]: 42% |
| O=C(NCc1c(F)cccc1F)N1CCC(Nc2ccc(CCNC[C@H](O)COc3ccc(O)cc3)cc2)CC1 | 750 | Intrinsic activity (Adrenergic receptor beta [5]): inactive |
| CNC(=O)N1CCC(Nc2ccc(CCNC[C@H](O)COc3ccc(O)cc3)cc2)CC1 | 350 | – |
| O=C(NCc1cc(F)ccc1F)N1CCC(Nc2ccc(CCNC[C@H](O)COc3ccc(O)cc3)cc2)CC1 | 522 | Intrinsic activity (Adrenergic receptor beta [5]): inactive |
| CCCCCCCCNC(=O)N1CCC(Nc2ccc(CCNC[C@H](O)COc3ccc(O)cc3)cc2)CC1 | 610 | EC50 [6]: 8 nM |
| O=C(NCc1ccc(F)cc1F)N1CCC(Nc2ccc(CCNC[C@H](O)COc3ccc(O)cc3)cc2)CC1 | 460 | Intrinsic activity (Adrenergic receptor beta [5]): inactive |
| O=C(NCc1ccc(Cl)cc1Cl)N1CCC(Nc2ccc(CCNC[C@H](O)COc3ccc(O)cc3)cc2)CC1 | 254 | Intrinsic activity (Adrenergic receptor beta [5]): inactive |
| CCCCCCCCNC(=O)N1CCC(Nc2ccc(CCNC[C@H](O)COc3ccc(O)c4c3CCC(=O)N4)cc2)CC1 | 88 | – |
| CS(=O)(=O)Nc1cc(OC[C@@H](O)CNCCc2ccc(NC3CCN(C(=O)NCc4cc(F)ccc4F)CC3)cc2)ccc1O | 423 | – |
| CC(C)NC(=O)N1CCC(Nc2ccc(CCNC[C@H](O)COc3ccc(O)cc3)cc2)CC1 | 943 | – |
| O=C(NCCCC1CCCC1)N1CCC(Nc2ccc(CCNC[C@H](O)COc3ccc(O)cc3)cc2)CC1 | 187 | – |
| O=C(NCc1ccccc1F)N1CCC(Nc2ccc(CCNC[C@H](O)COc3ccc(O)cc3)cc2)CC1 | 260 | Intrinsic activity (Adrenergic receptor beta [5]): inactive |
| CS(=O)(=O)Nc1cc([C@@H](O)CNCCc2ccc(NC3CCN(C(=O)NCc4cc(F)ccc4F)CC3)cc2)ccc1O | 2640 | EC50 (Adrenergic receptor beta [7]): 10 nM |
| O=C(NCc1ccc(F)cc1)N1CCC(Nc2ccc(CCNC[C@H](O)COc3ccc(O)cc3)cc2)CC1 | 109 | EC50 [6]: 41 nM |
